Test results published in PMC5680308, “Binding of mycotoxins to proteins involved in neuronal plasticity: a combined in silico/wet investigation” (Scientific Reports, 2017).
Like-named read-outs stand apart in the source and are kept apart here.

Key:
[1] = target: T1, Human recombinant neuroligin 4-X linked (NLGN4X) (Homo sapiens, UniProt Q8N0W4); assay: biochemical; type: binding; conditions: for Kd: read-out: dissociation constant (kD)
[2] = target: T2, human recombinant acetylcholinesterase (AChE) (Homo sapiens, UniProt P22303); assay: Microscale thermophoresis (MST) assay; type: binding
T2 construct: purchased Sigma Aldrich (Milano, Italy)
T2 sequence (P22303 32-614): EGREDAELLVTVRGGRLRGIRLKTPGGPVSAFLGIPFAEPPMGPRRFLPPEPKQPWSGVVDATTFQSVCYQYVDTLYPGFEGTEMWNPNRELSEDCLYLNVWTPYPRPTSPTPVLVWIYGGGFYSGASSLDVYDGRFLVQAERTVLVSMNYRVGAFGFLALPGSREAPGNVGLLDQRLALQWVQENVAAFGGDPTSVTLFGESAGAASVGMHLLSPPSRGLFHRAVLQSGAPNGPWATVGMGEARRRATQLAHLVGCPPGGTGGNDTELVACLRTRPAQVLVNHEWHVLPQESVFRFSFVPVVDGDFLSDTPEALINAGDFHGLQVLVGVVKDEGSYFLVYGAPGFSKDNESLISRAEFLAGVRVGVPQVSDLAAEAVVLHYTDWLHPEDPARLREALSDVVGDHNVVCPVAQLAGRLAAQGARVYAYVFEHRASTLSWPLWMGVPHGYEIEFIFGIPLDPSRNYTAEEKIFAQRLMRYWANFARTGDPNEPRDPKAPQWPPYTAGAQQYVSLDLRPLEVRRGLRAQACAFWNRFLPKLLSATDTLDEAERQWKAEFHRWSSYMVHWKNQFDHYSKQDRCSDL

[3] = target: T1, Human recombinant neuroligin 4-X linked (NLGN4X); assay: Microscale thermophoresis (MST) assay; type: binding
[4] = target: T2, human recombinant acetylcholinesterase (AChE); assay: Fluorescence steady-state binding experiments (intrinsic Trp fluorescence); conditions: pH 7.4

T1 sequence (Q8N0W4 42-676 limits assumed): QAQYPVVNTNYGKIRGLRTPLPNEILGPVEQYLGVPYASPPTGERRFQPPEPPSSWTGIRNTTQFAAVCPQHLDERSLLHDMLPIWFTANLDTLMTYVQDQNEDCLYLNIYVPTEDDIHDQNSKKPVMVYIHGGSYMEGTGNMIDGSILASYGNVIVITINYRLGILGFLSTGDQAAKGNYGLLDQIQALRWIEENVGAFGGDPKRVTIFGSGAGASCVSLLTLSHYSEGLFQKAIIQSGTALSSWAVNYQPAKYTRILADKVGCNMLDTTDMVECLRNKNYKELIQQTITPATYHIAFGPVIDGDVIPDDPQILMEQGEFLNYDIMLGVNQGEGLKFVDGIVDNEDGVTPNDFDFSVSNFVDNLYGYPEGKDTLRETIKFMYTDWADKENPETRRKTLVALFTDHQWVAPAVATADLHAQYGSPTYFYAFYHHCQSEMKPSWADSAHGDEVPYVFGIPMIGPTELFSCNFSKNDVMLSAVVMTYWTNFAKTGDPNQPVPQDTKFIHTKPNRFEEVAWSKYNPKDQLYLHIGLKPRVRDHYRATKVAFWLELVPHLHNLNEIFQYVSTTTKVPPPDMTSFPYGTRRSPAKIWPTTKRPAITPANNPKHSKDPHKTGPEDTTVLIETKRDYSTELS

Compound: COc1cc2c(c3oc(=O)c4c(c13)CCC4=O)[C@@H]1CCO[C@@H]1O2 [Aflatoxin B2, aflatoxin B2]
- quenching / decrease of the protein fluorescence emission intensity ([1]; pH 7.4): about 11%
- Kd ([1]; pH 7.4): 0.0103 µM
- interaction with the protein in MST [2]: did not confirm this prediction
- Kd ([3]; pH 7.4, read-out: kD for the binding site at higher affinity): 0.0566 µM

Compound: CC1=C[C@H]2O[C@@H]3[C@H](O)C[C@](C)([C@@]2(CO)[C@H](O)C1=O)[C@]31CO1 [Deoxynivalenol, deoxynivalenol]
- quenching / decrease of the protein fluorescence emission intensity ([1]; pH 7.4): 17%

Compound: CN1C(=O)[C@]23CC4=CC=C[C@H](O)[C@H]4N2C(=O)[C@@]1(CO)SS3 [Gliotoxin, gliotoxin]
- Kd ([1]; Trp fluorescence emission variation, PBS buffer pH 7.4, 25 °C, non-linear regression): 0.307 µM
- quenching / decrease of the protein fluorescence emission intensity ([1]; pH 7.4): about 17%
- interaction with the protein in MST ([2]; result in words, data not shown): did not confirm this prediction
- Kd ([3]; MST, PBS buffer pH 7.4, 25 °C, read-out: kD): 1.52 µM

Compound: Aflatoxin B1
- decrease of the fluorescence emission spectrum at increasing concentrations of the toxin [1]: did not show a significant decrease
- Kd ([2]; pH 8): 8.4 ± 0.694 µM
- interaction with the protein in MST ([3]; pH 7.4): no evidence of the interaction
- effect on Trp fluorescence emission at increasing toxin concentration [4]: a quenching effect was registered
